Source: PubChem BioAssay AID248 (DTP/NCI, 2004)
Several values for one entry are separate records, joined by “and”; a condition that tells them apart may be missing. Identical values can stand only once. Inconclusive results and toxic doses are left out. No stated cut-off is given here; in the data, active means T/C of 150% or more; inactive means T/C below 125%.

Tested on: L1210 leukemia ip in BDF1 mice, survival T/C
Assay: NCI In Vivo Anticancer Drug Screen. Data for tumor model L1210 Leukemia (intraperitoneal) in B6D2F1 (BDF1) mice
Conditions: endpoint: mean survival time, higher = longer survival
In short: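 Ratio derived from survival: compound-dosed mice over vehicle-dosed mice, all bearing a transplantable tumor.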

[1] = dose: 100.0 mg/kg/injection, schedule: Q04DX002 (ip), vehicle: Klucel (hydroxypropylcellulose) (HPC)
[2] = dose: 200.0 mg/kg/injection, schedule: Q04DX002 (ip), vehicle: Klucel (hydroxypropylcellulose) (HPC)
[3] = dose: 100.0 mg/kg/injection, schedule: Q01DX009 (ip), vehicle: saline
[4] = dose: 200.0 mg/kg/injection, schedule: Q01DX009 (ip), vehicle: saline
[5] = dose: 400.0 mg/kg/injection, schedule: Q01DX009 (ip), vehicle: saline
[6] = dose: 100.0 mg/kg/injection, schedule: Q01DX001 (ip), vehicle: saline
[7] = dose: 200.0 mg/kg/injection, schedule: Q01DX001 (ip), vehicle: saline
[8] = dose: 400.0 mg/kg/injection, schedule: Q01DX001 (ip), vehicle: saline
[9] = dose: 100.0 mg/kg/injection, schedule: Q01DX009 (ip), vehicle: Klucel (hydroxypropylcellulose) (HPC)
[10] = dose: 100.0 mg/kg/injection, schedule: Q01DX001 (ip), vehicle: Klucel (hydroxypropylcellulose) (HPC)
[11] = dose: 200.0 mg/kg/injection, schedule: Q01DX001 (ip), vehicle: Klucel (hydroxypropylcellulose) (HPC)
[12] = dose: 200.0 mg/kg/injection, schedule: Q01DX009 (ip), vehicle: Klucel (hydroxypropylcellulose) (HPC)
[13] = dose: 400.0 mg/kg/injection, schedule: Q01DX001 (ip), vehicle: Klucel (hydroxypropylcellulose) (HPC)
[14] = dose: 400.0 mg/kg/injection, schedule: Q01DX009 (ip), vehicle: Klucel (hydroxypropylcellulose) (HPC)
[15] = dose: 100.0 mg/kg/injection, schedule: Q04DX003 (ip), vehicle: saline with Tween-80
[16] = dose: 200.0 mg/kg/injection, schedule: Q04DX003 (ip), vehicle: saline with Tween-80
[17] = dose: 100.0 mg/kg/injection, schedule: Q04DX003 (ip), vehicle: Klucel (hydroxypropylcellulose) (HPC)
[18] = dose: 200.0 mg/kg/injection, schedule: Q04DX003 (ip), vehicle: Klucel (hydroxypropylcellulose) (HPC)
[19] = dose: 15.0 mg/kg/injection, schedule: Q01DX Z (ip), vehicle: carboxymethylcellulose (CMC)

Measured: T/C

COc1ccccc1-n1c(O)c(N=Nc2ccc(Cl)cc2)c(=O)n(-c2ccc(I)cc2)c1=S
inactive: dose: 37.5 mg/kg/injection, schedule: Q01DX001 (ip), vehicle: Klucel (hydroxypropylcellulose) (HPC) 94 % of control | dose: 75.0 mg/kg/injection, schedule: Q01DX001 (ip), vehicle: Klucel (hydroxypropylcellulose) (HPC) 94 % of control | dose: 150.0 mg/kg/injection, schedule: Q01DX001 (ip), vehicle: Klucel (hydroxypropylcellulose) (HPC) 90 % of control

COC1OC2COC(c3ccccc3)OC2C(OC(C)=O)C1OC(C)=O (stereo unspecified)
inactive: [1] 95 % of control | [2] 117 % of control | dose: 400.0 mg/kg/injection, schedule: Q04DX002 (ip), vehicle: Klucel (hydroxypropylcellulose) (HPC) 120 % of control

CCOC(=O)/C=C/C(F)(F)C(F)(F)C(F)(F)C(F)(F)C(F)(F)C(F)(F)C(F)(F)F
inactive: [3] 98 % of control | [4] 105 % of control | [5] 105 % of control

CC(C)=NNC(=O)c1ccc[n+](C)c1
inactive: [6] 102 % of control | [7] 98 % of control | [8] 100 % of control

COc1cc(/C=C/[N+](=O)[O-])ccc1O
inactive: dose: 25.0 mg/kg/injection, schedule: Q01DX009 (ip), vehicle: Klucel (hydroxypropylcellulose) (HPC) 98 % of control | dose: 50.0 mg/kg/injection, schedule: Q01DX009 (ip), vehicle: Klucel (hydroxypropylcellulose) (HPC) 98 % of control | [9] 102 % of control and 103 % of control

CCCCN=C=NCCCC
inactive: dose: 0.05 mg/kg/injection, schedule: Q01DX Z (ip), vehicle: saline 96 % of control | dose: 0.08 mg/kg/injection, schedule: Q01DX Z (ip), vehicle: saline 90 % of control | dose: 0.12 mg/kg/injection, schedule: Q01DX Z (ip), vehicle: saline 104 % of control | [10] 93 % of control | [11] 93 % of control

C/C(=N\NC(N)=O)C1CCC(c2ccccc2)CC1 (stereo unspecified)
inactive: [10] 103 % of control | [9] 90 % of control | [11] 96 % of control | [12] 86 % of control | [13] 92 % of control | [14] 91 % of control

C(=NCCN=Cc1c[nH]c2ccccc12)c1c[nH]c2ccccc12
inactive: dose: 100.0 mg/kg/injection, schedule: Q01DX009 (ip), vehicle: saline with Tween-80 100 % of control | [15] 89 % of control | dose: 200.0 mg/kg/injection, schedule: Q01DX009 (ip), vehicle: saline with Tween-80 102 % of control | [16] 96 % of control

C#CC(C)ON1C(=O)c2ccccc2C1=O (stereo unspecified)
inactive: dose: 100.0 mg/kg/injection, schedule: Q01DX009 (ip), vehicle: saline sonified 96 % of control | [15] 115 % of control | dose: 200.0 mg/kg/injection, schedule: Q01DX009 (ip), vehicle: saline sonified 97 % of control | [16] 114 % of control | dose: 400.0 mg/kg/injection, schedule: Q01DX009 (ip), vehicle: saline sonified 104 % of control | dose: 400.0 mg/kg/injection, schedule: Q04DX003 (ip), vehicle: saline with Tween-80 109 % of control

CCCCCCCCCc1ccc(OP(Oc2ccccc2)Oc2ccc(CCCCCCCCC)cc2)cc1
inactive: dose: 75.0 mg/kg/injection, schedule: Q01DX001 (ip), vehicle: saline 100 % of control | dose: 150.0 mg/kg/injection, schedule: Q01DX001 (ip), vehicle: saline 109 % of control

BrC1=C(Br)C(Br)(Br)C(Br)=C1Br
inactive: dose: 10.0 mg/kg/injection, schedule: Q01DX001 (ip), vehicle: saline 101 % of control | dose: 20.0 mg/kg/injection, schedule: Q01DX001 (ip), vehicle: saline 98 % of control

CCCC#CC(=O)OCCCCCC
inactive: dose: 100.0 mg/kg/injection, schedule: Q04DX002 (ip), vehicle: saline 96 % of control | dose: 200.0 mg/kg/injection, schedule: Q04DX002 (ip), vehicle: saline 111 % of control | dose: 400.0 mg/kg/injection, schedule: Q04DX002 (ip), vehicle: saline 103 % of control

CC(=O)n1ccnc1/C=C\c1ccc([N+](=O)[O-])s1
inactive: [17] 103 % of control | [18] 101 % of control

NC(N)=NNC=NCCc1ccc(O)cc1
inactive: [19] 107 % of control | dose: 30.0 mg/kg/injection, schedule: Q01DX Z (ip), vehicle: carboxymethylcellulose (CMC) 98 % of control | dose: 60.0 mg/kg/injection, schedule: Q01DX Z (ip), vehicle: carboxymethylcellulose (CMC) 101 % of control | dose: 120.0 mg/kg/injection, schedule: Q01DX Z (ip), vehicle: carboxymethylcellulose (CMC) 103 % of control

COc1ccc(Cc2c3cc(OC)c(OC)cc3cc[n+]2C)cc1OC
inactive: dose: 12.5 mg/kg/injection, schedule: Q01DX009 (ip), vehicle: saline with Tween-80 103 % of control | dose: 25.0 mg/kg/injection, schedule: Q01DX009 (ip), vehicle: saline with Tween-80 100 % of control | dose: 50.0 mg/kg/injection, schedule: Q01DX009 (ip), vehicle: saline with Tween-80 105 % of control and 106 % of control | [15] 98 % of control | [16] 95 % of control

CC(C=C1CCCCC1)C(=O)O (stereo unspecified)
inactive: [3] 95 % of control | dose: 100.0 mg/kg/injection, schedule: Q04DX003 (ip), vehicle: saline 102 % of control | [4] 105 % of control | dose: 200.0 mg/kg/injection, schedule: Q04DX003 (ip), vehicle: saline 102 % of control | [5] 97 % of control | dose: 400.0 mg/kg/injection, schedule: Q04DX003 (ip), vehicle: saline 105 % of control

O=[N+]([O-])c1cccc(Cl)c1F
inactive: [1] 101 % of control | [2] 96 % of control

COC(C)C/C=N/Nc1nnc(N/N=C/CC(C)OC)c2ccccc12 (stereo unspecified)
inactive: dose: 5.0 mg/kg/injection, schedule: Q01DX001 (ip), vehicle: carboxymethylcellulose (CMC) 96 % of control | dose: 10.0 mg/kg/injection, schedule: Q01DX001 (ip), vehicle: carboxymethylcellulose (CMC) 93 % of control

CC(=O)N1C(=O)c2ccccc2C1=O
inactive: [10] 95 % of control | [9] 93 % of control | [11] 92 % of control | [12] 93 % of control | [13] 92 % of control | [14] 90 % of control

O=C(/C=C/C=C/c1cccc([N+](=O)[O-])c1)CCl
inactive: [6] 101 % of control | [7] 95 % of control | [8] 103 % of control

O=C1c2ccccc2-c2nc3ccccc3nc21
inactive: dose: 45.0 mg/kg/injection, schedule: Q01DX009 (ip), vehicle: Klucel (hydroxypropylcellulose) (HPC) 95 % of control | dose: 90.0 mg/kg/injection, schedule: Q01DX009 (ip), vehicle: Klucel (hydroxypropylcellulose) (HPC) 93 % of control | dose: 100.0 mg/kg/injection, schedule: Q04DX003 (ip), vehicle: saline sonified 101 % of control | dose: 180.0 mg/kg/injection, schedule: Q01DX009 (ip), vehicle: Klucel (hydroxypropylcellulose) (HPC) 91 % of control | dose: 200.0 mg/kg/injection, schedule: Q04DX003 (ip), vehicle: saline sonified 97 % of control | dose: 400.0 mg/kg/injection, schedule: Q04DX003 (ip), vehicle: saline sonified 90 % of control

CCCc1ccccc1NC(=O)NCCCl
inactive: dose: 25.0 mg/kg/injection, schedule: Q04DX003 (ip), vehicle: Klucel (hydroxypropylcellulose) (HPC) 106 % of control | dose: 50.0 mg/kg/injection, schedule: Q04DX003 (ip), vehicle: Klucel (hydroxypropylcellulose) (HPC) 101 % of control | [17] 105 % of control and 86 % of control | [18] 89 % of control | dose: 400.0 mg/kg/injection, schedule: Q04DX003 (ip), vehicle: Klucel (hydroxypropylcellulose) (HPC) 88 % of control

CCOC(=O)OC(=O)CNC(=O)CN1C(=O)c2ccccc2C1=O
inactive: [6] 100 % of control | [7] 94 % of control | [8] 91 % of control

BrCCCCBr
inactive: [6] 103 % of control | [7] 100 % of control | [8] 103 % of control

O=C(Nc1cccc(C2=NCCN2)c1)c1cccc2c(C(=O)Nc3cccc(C4=NCCN4)c3)cccc12
inactive: [19] 86 % of control
